Data: patent US20250206727A1, “HETEROCYCLIC SUBSTITUTED AROMATIC COMPOUND, PREPARATION METHOD THEREFOR, HERBICIDAL COMPOSITION AND APPLICATION” (QINGDAO KINGAGROOT CHEMICAL COMPOUND CO., LTD., priority 2022, published 2025)

Columns and labels:
Assay in all cases: Post-emergence test on weeds (greenhouse, spray at 2-3 leaf stage)
Assay type in all cases: in vivo
Parameters in all cases: key: Level 10: completely dead; Level 9: growth control rate greater than or equal to 90% and less than 100%; Level 8: growth control rate greater than or equal to 80% and less than 90%; Level 7: growth control rate greater than or equal to 70% and less than 80%; Level 6: growth control rate greater than or equal to 60% and less than 70%; Level 5: growth control rate greater than or equal to 50% and less than 60%; Level 4: growth control rate greater than or equal to 40% and less than 50%; Level 3: growth control rate greater than or equal to 30% and less than 40%; Level 2: growth control rate greater than or equal to 20% and less than 30%; Level 1: growth control rate less than 20%; Level 0: no effect
Conditions in all cases: 60 g a.i./ha, 3 weeks after application
Veronica polita = test system: Veronica polita
Summary of the method: (§1)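 Pot-grown plants were spray-tower treated two weeks after sowing with compound in acetone/Tween 80 plus 1.5 L/ha methyl oleate EC, at rates from 500 to 7.5 g a.i./ha. Fresh-weight growth control was scored 0–10 after 3 weeks in the greenhouse, averaged over triplicates.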

Amaranthus retroflexus = test system: Amaranthus retroflexus
Summary of the method: as §1

Setaria viridis = test system: Setaria viridis
Summary of the method: as §1

Abutilon theophrasti = test system: Abutilon theophrasti
Summary of the method: as §1

Echinochloa crus-galli = test system: Echinochloa crus-galli
Summary of the method: as §1

Digitaria sanguinalis = test system: Digitaria sanguinalis
Summary of the method: as §1

CCOC(=O)C1(C(F)(F)F)ON=C(c2cc(-c3ncc(C(F)(F)F)cc3Cl)c(F)cc2Cl)O1 (stereo not drawn) [Compound 62]
10: activity level (fresh weight growth control rate), Veronica polita (Veronica polita) | activity level (fresh weight growth control rate), Amaranthus retroflexus (Amaranthus retroflexus) | activity level (fresh weight growth control rate), Setaria viridis (Setaria viridis) | activity level (fresh weight growth control rate), Abutilon theophrasti (Abutilon theophrasti) | activity level (fresh weight growth control rate), Echinochloa crus-galli (Echinochloa crus-galli) | activity level (fresh weight growth control rate), Digitaria sanguinalis (Digitaria sanguinalis)

CCOC(=O)C1(C2CC2)ON=C(c2cc(-c3ncc(C(F)(F)F)cc3Cl)c(F)cc2Cl)O1 (stereo not drawn) [Compound 79]
10: activity level (fresh weight growth control rate), Veronica polita (Veronica polita) | activity level (fresh weight growth control rate), Amaranthus retroflexus (Amaranthus retroflexus) | activity level (fresh weight growth control rate), Setaria viridis (Setaria viridis) | activity level (fresh weight growth control rate), Abutilon theophrasti (Abutilon theophrasti) | activity level (fresh weight growth control rate), Echinochloa crus-galli (Echinochloa crus-galli) | activity level (fresh weight growth control rate), Digitaria sanguinalis (Digitaria sanguinalis)

CCSC(=O)C1(C)ON=C(c2cc(-c3ncc(C(F)(F)F)cc3Cl)c(F)cc2Cl)O1 (stereo not drawn) [Compound 85]
10: activity level (fresh weight growth control rate), Veronica polita (Veronica polita) | activity level (fresh weight growth control rate), Amaranthus retroflexus (Amaranthus retroflexus) | activity level (fresh weight growth control rate), Setaria viridis (Setaria viridis) | activity level (fresh weight growth control rate), Abutilon theophrasti (Abutilon theophrasti) | activity level (fresh weight growth control rate), Echinochloa crus-galli (Echinochloa crus-galli) | activity level (fresh weight growth control rate), Digitaria sanguinalis (Digitaria sanguinalis)

CCCOC(=O)C1(C)ON=C(c2cc(-c3ncc(C(F)(F)F)cc3Cl)c(F)cc2Cl)O1 (stereo not drawn) [Compound 86]
10: activity level (fresh weight growth control rate), Veronica polita (Veronica polita) | activity level (fresh weight growth control rate), Amaranthus retroflexus (Amaranthus retroflexus) | activity level (fresh weight growth control rate), Setaria viridis (Setaria viridis) | activity level (fresh weight growth control rate), Abutilon theophrasti (Abutilon theophrasti) | activity level (fresh weight growth control rate), Echinochloa crus-galli (Echinochloa crus-galli) | activity level (fresh weight growth control rate), Digitaria sanguinalis (Digitaria sanguinalis)

CCCOC(=O)C1(C)ON=C(c2cc(-c3ncc(Cl)cc3Cl)c(F)cc2Cl)O1 (stereo not drawn) [Compound 87]
10: activity level (fresh weight growth control rate), Veronica polita (Veronica polita) | activity level (fresh weight growth control rate), Amaranthus retroflexus (Amaranthus retroflexus) | activity level (fresh weight growth control rate), Setaria viridis (Setaria viridis) | activity level (fresh weight growth control rate), Abutilon theophrasti (Abutilon theophrasti) | activity level (fresh weight growth control rate), Echinochloa crus-galli (Echinochloa crus-galli) | activity level (fresh weight growth control rate), Digitaria sanguinalis (Digitaria sanguinalis)

CC(C)OC(=O)C1(C)ON=C(c2cc(-c3ncc(C(F)(F)F)cc3Cl)c(F)cc2Cl)O1 (stereo not drawn) [Compound 88]
10: activity level (fresh weight growth control rate), Veronica polita (Veronica polita) | activity level (fresh weight growth control rate), Amaranthus retroflexus (Amaranthus retroflexus) | activity level (fresh weight growth control rate), Setaria viridis (Setaria viridis) | activity level (fresh weight growth control rate), Abutilon theophrasti (Abutilon theophrasti) | activity level (fresh weight growth control rate), Echinochloa crus-galli (Echinochloa crus-galli) | activity level (fresh weight growth control rate), Digitaria sanguinalis (Digitaria sanguinalis)

CCCCOC(=O)C1(C)ON=C(c2cc(-c3ncc(C(F)(F)F)cc3Cl)c(F)cc2Cl)O1 (stereo not drawn) [Compound 89]
10: activity level (fresh weight growth control rate), Veronica polita (Veronica polita) | activity level (fresh weight growth control rate), Amaranthus retroflexus (Amaranthus retroflexus) | activity level (fresh weight growth control rate), Setaria viridis (Setaria viridis) | activity level (fresh weight growth control rate), Abutilon theophrasti (Abutilon theophrasti) | activity level (fresh weight growth control rate), Echinochloa crus-galli (Echinochloa crus-galli) | activity level (fresh weight growth control rate), Digitaria sanguinalis (Digitaria sanguinalis)

C=CCOC(=O)C1(C)ON=C(c2cc(-c3ncc(C(F)(F)F)cc3Cl)c(F)cc2Cl)O1 (stereo not drawn) [Compound 93]
10: activity level (fresh weight growth control rate), Veronica polita (Veronica polita) | activity level (fresh weight growth control rate), Amaranthus retroflexus (Amaranthus retroflexus) | activity level (fresh weight growth control rate), Setaria viridis (Setaria viridis) | activity level (fresh weight growth control rate), Abutilon theophrasti (Abutilon theophrasti) | activity level (fresh weight growth control rate), Echinochloa crus-galli (Echinochloa crus-galli) | activity level (fresh weight growth control rate), Digitaria sanguinalis (Digitaria sanguinalis)

CC(C)=CCOC(=O)C1(C)ON=C(c2cc(-c3ncc(C(F)(F)F)cc3Cl)c(F)cc2Cl)O1 (stereo not drawn) [Compound 96]
10: activity level (fresh weight growth control rate), Veronica polita (Veronica polita) | activity level (fresh weight growth control rate), Amaranthus retroflexus (Amaranthus retroflexus) | activity level (fresh weight growth control rate), Setaria viridis (Setaria viridis) | activity level (fresh weight growth control rate), Abutilon theophrasti (Abutilon theophrasti) | activity level (fresh weight growth control rate), Echinochloa crus-galli (Echinochloa crus-galli) | activity level (fresh weight growth control rate), Digitaria sanguinalis (Digitaria sanguinalis)

C#CCOC(=O)C1(C)ON=C(c2cc(-c3ncc(C(F)(F)F)cc3Cl)c(F)cc2Cl)O1 (stereo not drawn) [Compound 97]
10: activity level (fresh weight growth control rate), Veronica polita (Veronica polita) | activity level (fresh weight growth control rate), Amaranthus retroflexus (Amaranthus retroflexus) | activity level (fresh weight growth control rate), Setaria viridis (Setaria viridis) | activity level (fresh weight growth control rate), Abutilon theophrasti (Abutilon theophrasti) | activity level (fresh weight growth control rate), Echinochloa crus-galli (Echinochloa crus-galli) | activity level (fresh weight growth control rate), Digitaria sanguinalis (Digitaria sanguinalis)

CC1(C(=O)OCCF)ON=C(c2cc(-c3ncc(C(F)(F)F)cc3Cl)c(F)cc2Cl)O1 (stereo not drawn) [Compound 99]
10: activity level (fresh weight growth control rate), Veronica polita (Veronica polita) | activity level (fresh weight growth control rate), Amaranthus retroflexus (Amaranthus retroflexus) | activity level (fresh weight growth control rate), Setaria viridis (Setaria viridis) | activity level (fresh weight growth control rate), Abutilon theophrasti (Abutilon theophrasti) | activity level (fresh weight growth control rate), Echinochloa crus-galli (Echinochloa crus-galli) | activity level (fresh weight growth control rate), Digitaria sanguinalis (Digitaria sanguinalis)

CC1(C(=O)OCC(F)F)ON=C(c2cc(-c3ncc(C(F)(F)F)cc3Cl)c(F)cc2Cl)O1 (stereo not drawn) [Compound 101]
10: activity level (fresh weight growth control rate), Veronica polita (Veronica polita) | activity level (fresh weight growth control rate), Amaranthus retroflexus (Amaranthus retroflexus) | activity level (fresh weight growth control rate), Setaria viridis (Setaria viridis) | activity level (fresh weight growth control rate), Abutilon theophrasti (Abutilon theophrasti) | activity level (fresh weight growth control rate), Echinochloa crus-galli (Echinochloa crus-galli) | activity level (fresh weight growth control rate), Digitaria sanguinalis (Digitaria sanguinalis)

CC1(C(=O)OCCCF)ON=C(c2cc(-c3ncc(C(F)(F)F)cc3Cl)c(F)cc2Cl)O1 (stereo not drawn) [Compound 103]
10: activity level (fresh weight growth control rate), Veronica polita (Veronica polita) | activity level (fresh weight growth control rate), Amaranthus retroflexus (Amaranthus retroflexus) | activity level (fresh weight growth control rate), Setaria viridis (Setaria viridis) | activity level (fresh weight growth control rate), Abutilon theophrasti (Abutilon theophrasti) | activity level (fresh weight growth control rate), Echinochloa crus-galli (Echinochloa crus-galli) | activity level (fresh weight growth control rate), Digitaria sanguinalis (Digitaria sanguinalis)
